{"source": "patent US5292734A", "about": "“Angiotensin II receptor blocking 2,3,6 substituted quinazolinones” (American Cyanamid Company, priority 1993, dated 1994)", "tested_on": "Angiotensin II (AII) vasopressor response", "test": "AII challenge: vasopressor response of angiotensin II in conscious SHR", "type": "in vivo, rat (Conscious Male Okamoto-Aoki SHR)", "details": "for % Inhibition / Average Change: SHR n = 2; for Response After AII / Change: single rat, SHR", "text": "By administering a compound of this invention to a rat, and then challenging with angiotensin II, a blockage of the vasopressor response is realized.\nConscious Male Okamoto-Aoki SHR, 16-20 weeks old, weighing approximately 330 g are purchased from Charles River Labs (Wilmington, Mass.). Conscious rats are restrained in a supine position with elastic tape. The area at the base of the tail is locally anesthetized by subcutaneous infiltration with 2% procaine. The ventral caudal artery and vein are isolated, and a cannula made of polyethylene (PE) 10-20 tubing (fused together by heat) is passed into the lower abdominal aorta and vena cava, respectively. The cannula is secured, heparinized (1,000 I.U./ml), sealed and the wound is closed. The animals are placed in plastic restraining cages in an upright position. The cannula is attached to a Statham P23Db pressure transducer, and pulsatile blood pressure is recorded to 10-15 minutes with a Gould Brush recorder. (Chan et al., (Drug Development Res., 18:75-94, 1989).\nAngiotensin II (human sequence, Sigma Chem. Co., St. Louis, Mo.) of 0.05 and 0.1 ug/kg i.v. is injected into all rats (predosing response). Then a test compound, vehicle or a known angiotensin II antagonist is administered i.v., i.p. or orally to each set of rats. The two doses of angiotensin II are given to each rat again at 30, 60, 90, 120, 180, 240 and 300 minutes post dosing the compound or vehicle. The vasopressor response of angiotensin II is measured for the increase in systolic blood pressure in mmhg. The percentage of antagonism or blockade of the vasopressor response of angiotensin II by a compound is calculated using the vasopressor response (increase in systolic blood pressure) of angiotensin II of each rat predosing the compound as 100%. A compound is considered active if at 30 mg/kg i.v. it antagonized at least 50% of the response.", "key": {"[1]": {"details": "1 mg/kg I.V., AII 0.05 mcg/kg IV, 30 min post dose"}, "[2]": {"details": "1 mg/kg I.V., AII 0.05 mcg/kg IV, 60 min post dose"}, "[3]": {"details": "1 mg/kg I.V., AII 0.05 mcg/kg IV, 90 min post dose"}, "[4]": {"details": "1 mg/kg I.V., AII 0.05 mcg/kg IV, 120 min post dose"}, "[5]": {"details": "1 mg/kg I.V., AII 0.05 mcg/kg IV, 180 min post dose"}, "[6]": {"details": "1 mg/kg I.V., AII 0.05 mcg/kg IV, 240 min post dose"}, "[7]": {"details": "1 mg/kg I.V., AII 0.1 mcg/kg IV, 30 min post dose"}, "[8]": {"details": "1 mg/kg I.V., AII 0.1 mcg/kg IV, 60 min post dose"}, "[9]": {"details": "1 mg/kg I.V., AII 0.1 mcg/kg IV, 90 min post dose"}, "[10]": {"details": "1 mg/kg I.V., AII 0.1 mcg/kg IV, 120 min post dose"}, "[11]": {"details": "1 mg/kg I.V., AII 0.1 mcg/kg IV, 180 min post dose"}, "[12]": {"details": "1 mg/kg I.V., AII 0.1 mcg/kg IV, 240 min post dose"}, "[13]": {"details": "2 mg/kg P.O., AII 0.05 mcg/kg IV, 30 min post dose"}, "[14]": {"details": "2 mg/kg P.O., AII 0.05 mcg/kg IV, 60 min post dose"}, "[15]": {"details": "2 mg/kg P.O., AII 0.05 mcg/kg IV, 90 min post dose"}, "[16]": {"details": "2 mg/kg P.O., AII 0.05 mcg/kg IV, 120 min post dose"}, "[17]": {"details": "2 mg/kg P.O., AII 0.05 mcg/kg IV, 180 min post dose"}, "[18]": {"details": "2 mg/kg P.O., AII 0.1 mcg/kg IV, 30 min post dose"}, "[19]": {"details": "2 mg/kg P.O., AII 0.1 mcg/kg IV, 60 min post dose"}, "[20]": {"details": "2 mg/kg P.O., AII 0.1 mcg/kg IV, 90 min post dose"}, "[21]": {"details": "2 mg/kg P.O., AII 0.1 mcg/kg IV, 120 min post dose"}, "[22]": {"details": "2 mg/kg P.O., AII 0.1 mcg/kg IV, 180 min post dose"}, "[23]": {"details": "1 mg/kg I.V., AII 0.05 mcg/kg IV, 30 min post dose, 1 mg/kg"}, "[24]": {"details": "1 mg/kg I.V., AII 0.05 mcg/kg IV, 60 min post dose, 1 mg/kg"}, "[25]": {"details": "1 mg/kg I.V., AII 0.05 mcg/kg IV, 90 min post dose, 1 mg/kg"}, "[26]": {"details": "1 mg/kg I.V., AII 0.05 mcg/kg IV, 180 min post dose, 1 mg/kg"}, "[27]": {"details": "1 mg/kg I.V., AII 0.05 mcg/kg IV, 240 min post dose, 1 mg/kg"}}, "note": "Where “and” joins values, the source holds several entries; their conditions need not be identical. Equal entries are not always repeated."}
{"smiles": "CCCCc1nc2ccc(C(C)(O)CC3CCCN3)cc2c(=O)n1Cc1ccc(-c2ccccc2-c2nnn[nH]2)cc1", "note": "(stereo not drawn) [Example 79, CIS-2-Butyl-6-[1-hydroxy-1-methyl-2-(2-pyrrolidinyl)ethyl]-3-[[21-(1H-tetrazol-5-yl)[1,1'-biphenyl]-4-yl]methyl]-4(3H)-quinazolinone]", "values": [{"measurement": "% Inhibition", "setting": "[1]", "result": 93, "unit": "%"}, {"measurement": "Average Change", "setting": "[1]", "result": 2.5, "unit": "mmhg"}, {"measurement": "% Inhibition", "setting": "[2]", "result": 67, "unit": "%"}, {"measurement": "Average Change", "setting": "[2]", "result": 12.5, "unit": "mmhg"}, {"measurement": "% Inhibition", "setting": "[3]", "result": 53, "unit": "%"}, {"measurement": "Average Change", "setting": "[3]", "result": 17.5, "unit": "mmhg"}, {"measurement": "% Inhibition", "setting": "[4]", "result": 47, "unit": "%"}, {"measurement": "Average Change", "setting": "[4]", "result": 20, "unit": "mmhg"}, {"measurement": "% Inhibition", "setting": "[5]", "result": 53, "unit": "%"}, {"measurement": "Average Change", "setting": "[5]", "result": 17.5, "unit": "mmhg"}, {"measurement": "% Inhibition", "setting": "[6]", "result": 20, "unit": "%"}, {"measurement": "Average Change", "setting": "[6]", "result": 30, "unit": "mmhg"}, {"measurement": "% Inhibition", "setting": "[7]", "result": 76, "unit": "%"}, {"measurement": "Average Change", "setting": "[7]", "result": 11, "unit": "mmhg"}, {"measurement": "% Inhibition", "setting": "[8]", "result": 62, "unit": "%"}, {"measurement": "Average Change", "setting": "[8]", "result": 17, "unit": "mmhg"}, {"measurement": "% Inhibition", "setting": "[9]", "result": 56, "unit": "%"}, {"measurement": "Average Change", "setting": "[9]", "result": 20, "unit": "mmhg"}, {"measurement": "% Inhibition", "setting": "[10]", "result": 39, "unit": "%"}, {"measurement": "Average Change", "setting": "[10]", "result": 27.5, "unit": "mmhg"}, {"measurement": "% Inhibition", "setting": "[11]", "result": 50, "unit": "%"}, {"measurement": "Average Change", "setting": "[11]", "result": 22.5, "unit": "mmhg"}, {"measurement": "% Inhibition", "setting": "[12]", "result": 24, "unit": "%"}, {"measurement": "Average Change", "setting": "[12]", "result": 34, "unit": "mmhg"}, {"measurement": "% Inhibition", "setting": "[13]", "result": 0, "unit": "%"}, {"measurement": "Average Change", "setting": "[13]", "result": 27.5, "unit": "mmhg"}, {"measurement": "% Inhibition", "setting": "[14]", "result": -9, "unit": "%"}, {"measurement": "Average Change", "setting": "[14]", "result": 30, "unit": "mmhg"}, {"measurement": "% Inhibition", "setting": "[15]", "result": 13, "unit": "%"}, {"measurement": "Average Change", "setting": "[15]", "result": 24, "unit": "mmhg"}, {"measurement": "% Inhibition", "setting": "[16]", "result": 15, "unit": "%"}, {"measurement": "Average Change", "setting": "[16]", "result": 23.5, "unit": "mmhg"}, {"measurement": "% Inhibition", "setting": "[17]", "result": 5, "unit": "%"}, {"measurement": "Average Change", "setting": "[17]", "result": 26, "unit": "mmhg"}, {"measurement": "% Inhibition", "setting": "[18]", "result": -9, "unit": "%"}, {"measurement": "Average Change", "setting": "[18]", "result": 30, "unit": "mmhg"}, {"measurement": "% Inhibition", "setting": "[19]", "result": -36, "unit": "%"}, {"measurement": "Average Change", "setting": "[19]", "result": 37.5, "unit": "mmhg"}, {"measurement": "% Inhibition", "setting": "[20]", "result": -55, "unit": "%"}, {"measurement": "Average Change", "setting": "[20]", "result": 42.5, "unit": "mmhg"}, {"measurement": "% Inhibition", "setting": "[21]", "result": -11, "unit": "%"}, {"measurement": "Average Change", "setting": "[21]", "result": 30.5, "unit": "mmhg"}, {"measurement": "% Inhibition", "setting": "[22]", "result": -40, "unit": "%"}, {"measurement": "Average Change", "setting": "[22]", "result": 38.5, "unit": "mmhg"}, {"measurement": "Response After AII", "setting": "[1]", "result": 200, "unit": "mmhg"}, {"measurement": "Change", "setting": "[23]", "result": "0 mmhg and 5 mmhg"}, {"measurement": "Response After AII", "setting": "[23]", "result": 205, "unit": "mmhg"}, {"measurement": "Response After AII", "setting": "[2]", "result": 220, "unit": "mmhg"}, {"measurement": "Change", "setting": "[24]", "result": "15 mmhg and 10 mmhg"}, {"measurement": "Response After AII", "setting": "[24]", "result": 205, "unit": "mmhg"}, {"measurement": "Response After AII", "setting": "[3]", "result": 220, "unit": "mmhg"}, {"measurement": "Change", "setting": "[25]", "result": "15 mmhg and 20 mmhg"}, {"measurement": "Response After AII", "setting": "[25]", "result": 215, "unit": "mmhg"}, {"measurement": "Change", "setting": "[4]", "result": 20, "unit": "mmhg"}, {"measurement": "Response After AII", "setting": "[4]", "result": 215, "unit": "mmhg"}, {"measurement": "Response After AII", "setting": "[5]", "result": 220, "unit": "mmhg"}, {"measurement": "Change", "setting": "[26]", "result": "15 mmhg and 20 mmhg"}, {"measurement": "Response After AII", "setting": "[26]", "result": 215, "unit": "mmhg"}, {"measurement": "Change", "setting": "[27]", "result": "25 mmhg and 35 mmhg"}, {"measurement": "Response After AII", "setting": "[27]", "result": "220 mmhg and 235 mmhg"}, {"measurement": "Response After AII", "setting": "[7]", "result": 202, "unit": "mmhg"}]}
